This is an account of results in patent US6482858B1, “(−)-hydroxycitric acid for wound healing and immunomodulation” (priority 2001, dated 2002).

Data set [1] is described as follows: Single-subject trial of potassium HCA: skin health and psoriasis. Type of data set: in vivo, human. As to conditions: middle-aged subject. An excerpt: The results in the above examples led us to question whether HCA might be useful as a supplement for individuals not in need of weight loss and not under obvious stress. To this end, a middle-aged subject ingested approximately 2 to 3 grams HCA in the form of the potassium salt twice daily for 10 days. They were instructed to report on effects other than those which were to be expected, i.e., effects other than appetite control. Two quite interesting findings typical of re-regulation of corticoid metabolism emerged from this crude trial. […] These effects were similar in kind, although greater in degree, than this subject had experienced in the past when experimenting with relatively large dosages of melatonin (5 to 20 mg taken at bedtime) and, when much younger, amino acid supplementation designed to improve growth hormone release. We interpreted this finding as indicative of the normalization of melatonin and growth hormone metabolism. None of the side effects typical of elevated melatonin supplementation, such as morning grogginess or nasal congestion, were noted. Second, this subject noticed an improvement in their psoriasis during the last few days of the trial. In this subject's past experience, supplements which tended to improve their overall immune response and skin tone—including melatonin—at the same time tended to worsen their psoriasis. Therefore, this subject's experience with HCA was in line with the reports in the published literature regarding the condition as representative of corticoid and circadian dysregulation.

A further data set has as its target cortisol receptors (Homo sapiens, UniProt P04150). Particulars: cited from earlier work.
The conditions of data set [2]: cited from earlier work; for % Body H2O / % Ash, wet / % Fat, wet / % Protein, wet: mean; for % Body H2O: 52.6 mmol/kg diet, six weeks; for % Ash, wet / % Fat, wet / % Protein, wet: wet weight.

Where two headings read alike, the source gives them in different places.

cortisol receptors, sequence (P04150 whole entry): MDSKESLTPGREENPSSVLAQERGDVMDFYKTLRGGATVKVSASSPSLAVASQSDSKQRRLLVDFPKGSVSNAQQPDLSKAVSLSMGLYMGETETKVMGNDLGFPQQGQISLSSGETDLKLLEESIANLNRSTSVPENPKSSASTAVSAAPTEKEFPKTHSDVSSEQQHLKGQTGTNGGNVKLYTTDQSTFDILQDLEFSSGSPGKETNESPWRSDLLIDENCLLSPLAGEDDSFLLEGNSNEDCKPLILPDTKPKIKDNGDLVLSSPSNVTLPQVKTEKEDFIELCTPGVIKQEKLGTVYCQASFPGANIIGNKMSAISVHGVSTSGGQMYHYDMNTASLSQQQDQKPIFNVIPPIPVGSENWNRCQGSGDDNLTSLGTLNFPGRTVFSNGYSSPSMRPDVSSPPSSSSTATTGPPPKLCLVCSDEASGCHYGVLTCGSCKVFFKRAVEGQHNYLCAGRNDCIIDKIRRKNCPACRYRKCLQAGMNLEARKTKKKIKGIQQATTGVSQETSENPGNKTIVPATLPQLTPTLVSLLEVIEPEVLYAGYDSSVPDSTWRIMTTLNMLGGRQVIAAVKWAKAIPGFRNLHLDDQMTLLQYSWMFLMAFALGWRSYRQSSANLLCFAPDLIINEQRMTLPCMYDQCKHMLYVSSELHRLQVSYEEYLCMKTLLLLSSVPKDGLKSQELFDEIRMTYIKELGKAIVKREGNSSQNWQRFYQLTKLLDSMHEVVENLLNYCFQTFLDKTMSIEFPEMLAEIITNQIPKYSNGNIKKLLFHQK

On to `O=C(O)CC(O)(C(=O)O)C(O)C(=O)O` (single isomer, unassigned; (-)) [HCA, (−)-hydroxycitric acid], for which, in data set [1] (10 days), the “Side effects typical of elevated melatonin supplementation (morning grogginess, nasal congestion)” value was “None”. Moreover, the Psoriasis entry in data set [1] (approximately 2 to 3 grams twice daily for 10 days, last few days of the trial) is listed as “improvement”. Besides, the Skin tone result in data set [1] (approximately 2 to 3 grams twice daily, before the first week had passed) was “improved markedly”.

`CC#C[C@]1(O)CC[C@H]2[C@@H]3CCC4=CC(=O)CCC4=C3[C@@H](c3ccc(N(C)C)cc3)C[C@@]21C` [RU 486, mifepristone]: the “Plasma ACTH and cortisol” value at cortisol receptors (10 mg/kg.day oral, 7-14 days) is reported as “marked compensatory elevations”. Besides, the “Subjects who developed generalized exanthem (skin rash)” value at cortisol receptors (10 mg/kg.day oral, after 9 days of treatment) is 8 of the 11. Further, the “Enhancement of immune function” value on cortisol receptors (high doses, normal volunteers, 7-14 days) is listed as “does not result in measurable enhancement of immune function”.

As to `O=C([O-])CC(O)(C(=O)[O-])C(O)C(=O)[O-].[Na+].[Na+].[Na+]` (stereo not drawn) [Tri-NaHCA, trisodium (−)-hydroxycitrate], in data set [2] (Zucker lean), the “% Body H2O” value is on record as 64.3%; the “% Ash, wet” value is listed as 4.9/NA %; the “% Fat, wet” value is recorded as 8.05/NA %; the “% Protein, wet” value is on record as 22.0/NA %. Moreover, in data set [2] (Zucker obese), the “% Body H2O” value was 25.8%; the “% Ash, wet” value was 2.6/NA %; the “% Fat, wet” value was 59.8/NA %; the “% Protein, wet” value was 11.8/NA %. The “Carcass protein and ash/mineral content compared with control” value in data set [2] (lean and obese animals) is “increased”.
